Data: patent US6916843B1, “Anti-inflammatory actions of cytochrome P450 expoxygenase-derived eicosanoids” (The United States of America as represented by the …, priority 1999, dated 2005)
“Also recorded” adds a separate entry of the source. Blank lines part the entries; values can stand above or below the compound they belong to. Ends that are not written are not given here.

Assays:
[1] = system: bovine aortic endothelial cells (BAECs); assay: Hypoxia-reoxygenation-induced cell injury in BAECs (cell number, LDH release, trypan blue); assay type: cell-based; conditions: for hypoxia-reoxygenation-induced cell injury, epoxide hydrolase inhibitors: DCU 10 μmol/L and elaidamide 10 μmol/L added together prior to hypoxia
Experimental: Effects of P450-derived arachidonic acid metabolites on hypoxia-reoxygenalion-induced injury in BAECs. BAECs, either untransfected, or 48 hours after transfection with pcDNA3.1/GFP or pcDNA3.1/CYP2J2, or 10 min after treatment with eicosanoids, epoxide hydrolase inhibitors or vehicle, were exposed to hypoxia (95% nitrogen plus 5% carbon dioxide) for 24 hours, followed by reoxygenation (95% air plus 5% carbon dioxide) for 4 hours using an environmental chamber within a 37° C. incubator. Cells maintained under continuous (28 hours) normoxic conditions served as controls.
EETs were prepared by total chemical synthesis as previously described (Corey el al., 102 J. Am. Chem. Soc. 1433-1435 (1980), Falck et al., 23 Tetrahedron Lett. 1755-1756 (1982)). DHETs were prepared by chemical hydration of EETs as described by Capdevila et al., 187 Methods Enzymol. 386-394 (1990). Synthetic EETs and DHETs were purified by reverse-phase HPLC prior to use. BAECs, grown to ˜85% confluency, were treated with either synthetic [11,12]-EET, [11,12]-DHET, or [14,15]-EET in ethanol vehicle (1 μmol/L each, final concentration) for 10 min prior to exposure to hypoxia-reoxygenation. […] Cells treated with vehicle alone served as controls.
After hypoxia-reoxygenation, the cell number was determined using a hemocytometer and the degree of cell injury was assessed by measuring lactate dehydrogenase release into the culture medium using the CytoTox 96 Non-Radioactive Cytotoxicity Assay Kit (Promega, Madison, Wis.) and by counting the number of trypan blue dye stained cells. Data are expressed as a percentage of values obtained from control cells maintained under normoxic conditions.

NF-κB = NF-κB heterologous promoter (pκB.Luc) luciferase reporter in bovine endothelial cells; assay type: cell-based; conditions: 100 μM
Experimental: (§1) FIG. 2 is a set of bar graphs of cell-surface enzyme immunoassays. […] The difference between treatment with TNF-α alone and in the presence of [11,12]-EET were statistically significant (*p<0.05, **p<0.01), OD, optical density. […] After stimulation with TNF-α (10 ng/ml) in the presence or absence of EET, promoter activity was determined relative to basal activity. *p<0.01 vs. TNF-α alone.
(§2) To localize cis-acting elements in the VCAM-1 promoter that might mediate the inhibitory effects of [11,12]-EET, we transiently transfected bovine aortic endothelial cells with a −755 bp VCAM-1 promoter construct (DeCaterina et al., 96 J. Clin. Invest. 60 (1995)). Stimulation with TNF-α induced a 13-fold increase in relative VCAM-1 promoter activity that was abolished by cotreatment with [11,12]-EET. […] To confirm that the tandem κB sites in the VCAM-1 promoter are repressed by [11,12]-EET we subcloned them into a heterologous promoter construct containing the SV40 enhancer linked to the luciferase reporter gene (pκB.Luc). Stimulation of transfected endothelial cells with TNF-α induced a 6-fold increase in pκB.Luc promoter activity that was abolished by co-treatment with [11,12]-EET, but not [14,15]-EET (FIG. 2C). […] Compared to transfection with the empty pcDNA3.1 vector, overexpression of CYP2J2 decreased TNF-induced VCAM-1 and pκB.Luc promoter activity by 70-80% which were reversed in the presence of SKF525A (FIG. 2C). Neither transfection with CYP2J2 cDNA alone nor treatment with SKF525A alone affected basal promoter activity.

CYP2J2 = target: T1, CYP2J2 (Homo sapiens, UniProt P51589); assay: Arachidonic acid epoxygenase metabolite formation in CYP2J2-transfected bovine aortic endothelial cells (HPLC)
T1 construct: The CYP2J2 cDNA (1.9 kb) or GFP cDNA (0.75 kb) were subcloned into the plasmid pcDNA3.1; expressed in transfected cells; host or cells: bovine aortic endothelial cells (BAECs), transient transfection with pcDNA3.1/CYP2J2
T1 sequence (P51589 1-502): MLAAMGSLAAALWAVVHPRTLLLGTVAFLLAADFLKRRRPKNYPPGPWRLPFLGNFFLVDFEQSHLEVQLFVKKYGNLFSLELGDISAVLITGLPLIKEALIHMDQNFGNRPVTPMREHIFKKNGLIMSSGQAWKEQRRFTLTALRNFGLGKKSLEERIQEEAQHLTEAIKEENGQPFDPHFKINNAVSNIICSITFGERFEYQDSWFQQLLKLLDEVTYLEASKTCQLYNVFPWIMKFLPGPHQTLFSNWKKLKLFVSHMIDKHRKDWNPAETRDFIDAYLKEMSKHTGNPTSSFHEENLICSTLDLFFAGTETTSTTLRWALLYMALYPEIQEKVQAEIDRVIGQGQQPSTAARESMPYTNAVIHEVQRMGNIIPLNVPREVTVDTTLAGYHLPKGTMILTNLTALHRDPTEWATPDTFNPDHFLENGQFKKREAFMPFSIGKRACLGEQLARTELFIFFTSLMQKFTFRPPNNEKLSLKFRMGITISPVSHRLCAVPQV
Experimental: To study the formation of EETs by CYP2J2 in endothelial cells, we measured EET synthesis from bovine endothelial cells transfected with CYP2J2 cDNA. Early passage bovine aortic endothelial cells were grown to 60-70% confluence and transfected with either pcDNA3.1 or pcDNA3.1/CYP2J2 using Fugene™ 6 reagent (Boehringer Mannheim Corp.) according to the manufacturer's instructions. Using this method, the transfection efficiency was 10-20%. Forty-eight hours post-transfection, cells were washed twice with phosphate-buffered saline and incubated with freshly purified [^3H]arachidonic acid (185 Ci/mmol, 4-5 μCi/175 mm^2 flask) and unlabeled arachidonic acid (10 μM) was added before addition of arachidonic acid. At various time points, the media and cells were removed and extracted with diethyl ether. The combined organic phases were dried under a nitrogen stream, resolved by reverse-phase high performance liquid chromatography (HPLC) and quantified by liquid scintillation as described by Wu et al., 271 J. Biol. Chem. 3460 (1996). […]
These control GFP-transfected cells metabolized radiolabeled arachidonic acid to epoxygenase metabolites (EETs and DHETs) at a rate of ˜8 pmol/min/10^7 cells (FIG. 6). Endothelial cell arachidonic acid metabolism was determined as follows: Forty-eight hours after transfection with either pcDNA3.1/GFP or pcDNA3.1/CYP2J2, BAECs were incubated with freshly purified [5, 6, 8, 9, 11, 12, 14, 15-^3H]arachidonic acid (185 Ci/mmol, 4-5 μCi/175-mm^2 flask) in serurm-free culture medium at 37° C. for 30-120 min. […] The BAECs and culture medium were then collected and the reaction products extracted into ethyl ether, dried under a nitrogen stream, analyzed by reverse-phase HPLC, and quantified by on-line liquid scintillation using a Radiomatic Flo-One β detector (Radiomatic Instruments, Tampa, Fla.) as described (Wu et al., 271 J. Biol. Chem. 12551 (1996), Node et al., 285 Science 1276-1279 (1999)). […]

VCAM-1 promoter = VCAM-1 promoter construct activity in transiently transfected bovine aortic endothelial cells; assay type: cell-based; conditions: 100 μM
Description: as §2, with “-755” for “−755”, “SK[…]” for “SKF525A”

IκB kinase (IKK) = assay: IKK activity assay with GST-IκB-α substrate, TNF-α-stimulated endothelial cells; assay type: biochemical, human; conditions: 100 nM, TNF-α 10 ng/ml, 15 min
Experimental: A set of gel shift assays was performed. […] In some assays, [11,12]-EET (100 nM) was also added directly to the IKK assay (in vitro). As a control for nonspecific phosphorylation, the assay was performed without the addition of immunoprecipitated IKK (no enzyme) or in the presence of a IκB-α mutant (ΔSer 32, Ser 36→Thr) as substrate. The assay was performed three times with similar results.
Specificity of IKB was determined by the complete absence of phosphorylation when the mutated IκB-α substrate, GST-1κB-α (Δ32,36: S→T) which cannot be phosphorylated at serine residues 32 and 36, was substituted for wild-type GST-IκB-α.

VCAM-1 expression = assay: Cell-surface enzyme immunoassay of cytokine-induced VCAM-1 expression in endothelial cells; assay type: cell-based, human; conditions: KCa channel blocker 100 nM
Experimental: as §1
To determine the biological effects of EETs, we treated tumor necrosis factor alpha (TNF-α)-stimulated human endothelial cells with physiological relevant concentrations (1-100 nM) of [5,6]-EET, [8,9]-EET, [11,12]-EET, [14,15]-EET, [11,12]-DHET.

Compound: O=C(NC1CCCCC1)NC1CCCCC1 [DCU, dicyclohexylurea, reference compound]
hypoxia-reoxygenation-induced cell injury, epoxide hydrolase inhibitors [1]: significantly attenuates
hypoxia-reoxygenation-induced cell injury, epoxide hydrolase inhibitors ([1]; listed as dicyclohexylurea): limits

reversal of CYP2J2-mediated decrease of pκB.Luc promoter activity (NF-κB): reversed
inhibition of increased epoxygenase activity of CYP2J2-transfected BAECs (CYP2J2; 100 μmol/L): inhibited
inhibition of formation of epoxygenase metabolites by CYP2J2 transfected cells (CYP2J2; inhibitor 100 μM): > 80%
reversal of CYP2J2-mediated decrease of VCAM-1 promoter activity (VCAM-1 promoter): reversed
Compound: CCCC(C(=O)OCCN(CC)CC)(c1ccccc1)c1ccccc1 [SKF525A, reference compound]

Compound: CCCCC/C=C\C/C=C\C/C=C\CC1OC1CCCC(=O)O (stereo not drawn) [[5,6]-EET]
inhibition of TNF-α-induced IKK activity (IκB kinase (IKK)): to a lesser extent

Compound: CCCCC/C=C\C/C=C\CC1OC1C/C=C\CCCC(=O)O (stereo not drawn) [[8,9]-EET]
inhibition of TNF-α-induced IKK activity (IκB kinase (IKK)): to a lesser extent

Compound: CCCCC/C=C\CC(O)C(O)C/C=C\C/C=C\CCCC(=O)O (stereo not drawn) [[11,12]-DHET]
hypoxia-reoxygenation-induced cell injury, number of trypan blue stained cells ([1]; 1 μmol/L, added 10 min prior to hypoxia (24 h hypoxia, 4 h reoxygenation)): active in attenuating; also recorded: significantly attenuates

Compound: CCCCCCCC/C=C/CCCCCCCC(N)=O [elaidamide, reference compound]
hypoxia-reoxygenation-induced cell injury, epoxide hydrolase inhibitors [1]: limits; also recorded: significantly attenuates

Compound: charybodotoxin [reference compound]
block of the inhibitory effect of [11,12]-EET on TNF-α-induced VCAM-1 expression (VCAM-1 expression): did not block

Compound: iberiotoxin (QFTDVDCSVSKECWSVCKDLFGVDRGKCMGKKCRCYQ; not fully specified (residue 1, bridges); cysteine pairing not given here; UniProt P24663 1-37, looked up) [reference compound]
block of the inhibitory effect of [11,12]-EET on TNF-α-induced VCAM-1 expression (VCAM-1 expression): did not block
